Here are results for one molecule from ChEMBL document CHEMBL5518240 (J Med Chem, 2024).

The source made the active and inactive calls. The calls are words filed in the database; no cut-off is given here.

The subject of data set [1] is CWR22R. Briefly: Effect on other proteins on global level in human 22Rv1 cells at 100 nM incubated for 4 hrs by multiplexed quantitative proteomics analysis relative to control. The format is functional, cell-based.
The test system of data set [2] is CWR22R. Kind of data set: Reduction in KLK3 gene expression in AR positive human 22Rv1 cells assessed as reduction in mRNA level measured after 6 hrs by qRT-PCT analysis relative to control. To be noted: dose 0.1-1000 nM. In kind it is functional, cell-based.
In data set [3] the target is T1, Protein cereblon/Histone acetyltransferase p300 (Homo sapiens, UniProt Q09472+Q96SW2). Kind of data set: PROTAC activity at p300/CRBN in AR positive human VCaP cells assessed as maximal protein degradation at 4.1 nM incubated for 4 hrs by Western blot analysis relative to control. The format is cell-based. In general terms: Immunoblotting shows a protein as a band on a membrane.

Data set [4] is described as follows: Toxicity in CB17 SCID mouse xenografted with human VCaP cells assessed as weight loss at 0.3 to 1 mg/kg, po qd scheduled 5 days in a week measured on day 63. Conditions: in vivo, 1512 h, dose 0.3-1 mg/kg, time 63 day. The format is organism-based. Background: A xenograft is tissue or cells of one species grown in another, often human tumour cells in immunodeficient mice.

For data set [5], the target named is T1, Protein cereblon/Histone acetyltransferase p300. Briefly: PROTAC activity at p300/CRBN in human LNCaP cells assessed as protein degradation incubated for 4 hrs by Western blot analysis. The format is cell-based.
Data set [6] relates to VCaP. Briefly: Antiproliferative activity against AR positive human VCaP cells assessed inhibition of cell growth measured after 4 days by CellTiter-Glo Luminescent cell viability assay. In kind it is functional, cell-based. Conditions: 96 h.
Data set [7] concerns the target T2, Protein cereblon/CREB-binding protein (Homo sapiens, UniProt Q92793+Q96SW2). Kind of data set: PROTAC activity at CBP/CRBN in human 22Rv1 cells assessed as protein degradation incubated for 4 hrs by Western blot analysis. In kind it is cell-based.
In data set [8] the test system is CWR22R. Kind of data set: Potency index, ratio of ARV-110 IC50 to test compound IC50 for antiproliferative activity against AR positive human 22Rv1 cells assessed inhibition of cell growth measured after 4 days by CellTiter-Glo Luminescent cell viability assay. Conditions: time 4 day. In kind it is functional.
The target of data set [9] is T2, Protein cereblon/CREB-binding protein. Briefly: PROTAC activity at CBP/CRBN in human 22Rv1 cells assessed as reduction in protein level at 100 nM incubated for 4 hrs by multiplexed quantitative proteomics analysis relative to control. More on the design: scale not given: the % may be the effect or the level left. In kind it is cell-based.
Target sequence in this assay (Q92793 2-2442 limits assumed): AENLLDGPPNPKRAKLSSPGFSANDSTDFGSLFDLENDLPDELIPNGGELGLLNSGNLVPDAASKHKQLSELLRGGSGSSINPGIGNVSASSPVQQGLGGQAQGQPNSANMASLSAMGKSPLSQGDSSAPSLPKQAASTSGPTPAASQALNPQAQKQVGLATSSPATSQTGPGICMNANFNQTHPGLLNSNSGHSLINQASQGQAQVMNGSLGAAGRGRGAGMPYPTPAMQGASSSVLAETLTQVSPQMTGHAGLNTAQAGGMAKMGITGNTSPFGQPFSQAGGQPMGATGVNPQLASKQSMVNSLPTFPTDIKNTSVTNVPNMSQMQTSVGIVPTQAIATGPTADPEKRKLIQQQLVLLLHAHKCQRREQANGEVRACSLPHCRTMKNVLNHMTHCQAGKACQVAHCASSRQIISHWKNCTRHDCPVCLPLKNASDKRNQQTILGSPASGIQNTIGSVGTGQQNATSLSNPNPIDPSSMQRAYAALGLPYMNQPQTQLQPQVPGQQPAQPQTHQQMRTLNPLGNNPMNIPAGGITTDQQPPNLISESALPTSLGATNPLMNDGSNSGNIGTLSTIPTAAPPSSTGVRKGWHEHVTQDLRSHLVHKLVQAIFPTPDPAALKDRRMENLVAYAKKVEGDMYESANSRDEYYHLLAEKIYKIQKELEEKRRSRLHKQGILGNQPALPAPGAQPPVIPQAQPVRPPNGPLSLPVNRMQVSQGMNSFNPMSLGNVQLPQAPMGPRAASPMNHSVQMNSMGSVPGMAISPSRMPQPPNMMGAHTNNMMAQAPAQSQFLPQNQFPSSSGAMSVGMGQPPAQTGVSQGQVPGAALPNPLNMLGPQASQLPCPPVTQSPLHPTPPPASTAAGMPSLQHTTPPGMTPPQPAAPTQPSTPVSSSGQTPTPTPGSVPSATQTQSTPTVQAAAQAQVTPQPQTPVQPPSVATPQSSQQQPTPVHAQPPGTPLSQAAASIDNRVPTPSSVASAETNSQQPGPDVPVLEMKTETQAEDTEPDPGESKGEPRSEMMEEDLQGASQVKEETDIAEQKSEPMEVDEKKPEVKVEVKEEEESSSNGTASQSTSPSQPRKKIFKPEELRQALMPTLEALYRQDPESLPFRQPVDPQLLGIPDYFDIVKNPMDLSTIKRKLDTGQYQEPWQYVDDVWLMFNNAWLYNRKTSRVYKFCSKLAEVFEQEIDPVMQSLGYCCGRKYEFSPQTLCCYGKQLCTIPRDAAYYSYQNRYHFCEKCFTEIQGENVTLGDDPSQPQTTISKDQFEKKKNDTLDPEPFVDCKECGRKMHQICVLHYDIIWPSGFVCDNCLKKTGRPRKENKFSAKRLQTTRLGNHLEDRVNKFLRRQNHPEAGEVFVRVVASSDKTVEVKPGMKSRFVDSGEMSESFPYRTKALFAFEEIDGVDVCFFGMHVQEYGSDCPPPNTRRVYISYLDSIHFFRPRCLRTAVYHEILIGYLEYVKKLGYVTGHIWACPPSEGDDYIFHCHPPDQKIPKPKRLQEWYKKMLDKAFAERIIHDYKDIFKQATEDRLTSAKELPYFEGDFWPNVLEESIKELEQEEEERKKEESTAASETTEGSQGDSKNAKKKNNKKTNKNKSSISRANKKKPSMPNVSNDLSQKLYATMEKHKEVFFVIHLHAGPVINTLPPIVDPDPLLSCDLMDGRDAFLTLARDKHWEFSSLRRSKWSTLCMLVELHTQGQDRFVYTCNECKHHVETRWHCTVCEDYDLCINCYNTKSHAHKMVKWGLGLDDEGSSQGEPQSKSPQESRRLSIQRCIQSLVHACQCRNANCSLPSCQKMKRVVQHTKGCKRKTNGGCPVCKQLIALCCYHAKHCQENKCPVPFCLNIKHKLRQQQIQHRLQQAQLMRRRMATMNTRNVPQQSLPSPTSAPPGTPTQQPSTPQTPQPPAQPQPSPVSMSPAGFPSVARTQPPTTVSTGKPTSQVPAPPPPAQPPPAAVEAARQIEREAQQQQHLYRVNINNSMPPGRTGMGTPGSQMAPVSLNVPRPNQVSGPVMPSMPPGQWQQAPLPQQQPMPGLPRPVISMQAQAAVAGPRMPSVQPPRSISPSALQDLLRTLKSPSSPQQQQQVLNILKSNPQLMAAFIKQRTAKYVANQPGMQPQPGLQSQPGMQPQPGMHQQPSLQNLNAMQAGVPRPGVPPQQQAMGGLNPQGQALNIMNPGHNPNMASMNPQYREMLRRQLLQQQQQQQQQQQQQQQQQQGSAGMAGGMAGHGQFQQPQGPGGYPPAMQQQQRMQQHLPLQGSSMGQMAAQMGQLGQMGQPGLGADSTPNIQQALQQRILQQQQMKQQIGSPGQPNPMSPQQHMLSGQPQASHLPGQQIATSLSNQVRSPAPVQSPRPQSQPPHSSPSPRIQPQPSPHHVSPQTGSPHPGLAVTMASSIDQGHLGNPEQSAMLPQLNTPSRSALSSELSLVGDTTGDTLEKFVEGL
Target sequence in this assay (Q96SW2 whole entry partner): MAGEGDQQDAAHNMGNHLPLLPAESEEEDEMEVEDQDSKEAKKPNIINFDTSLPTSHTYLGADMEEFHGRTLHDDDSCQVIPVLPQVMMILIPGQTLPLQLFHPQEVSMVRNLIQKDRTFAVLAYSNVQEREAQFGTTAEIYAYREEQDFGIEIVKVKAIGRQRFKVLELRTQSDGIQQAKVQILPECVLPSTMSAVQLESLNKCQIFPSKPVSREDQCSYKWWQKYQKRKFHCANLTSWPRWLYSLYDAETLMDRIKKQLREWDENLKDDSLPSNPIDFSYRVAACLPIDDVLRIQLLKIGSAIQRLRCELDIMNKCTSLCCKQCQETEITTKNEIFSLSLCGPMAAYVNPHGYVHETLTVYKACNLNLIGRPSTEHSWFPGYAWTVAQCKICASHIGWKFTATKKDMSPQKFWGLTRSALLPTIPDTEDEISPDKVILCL
For data set [10] the target is unchanged. Briefly: PROTAC activity at CBP/CRBN in human VCaP cells assessed as protein degradation incubated for 4 hrs by Western blot analysis. The format is cell-based.
Data set [11] shares this target. Briefly: PROTAC activity at CBP/CRBN in human LNCaP cells assessed as maximal protein degradation at 1 uM incubated for 4 hrs by Western blot analysis relative to control. The format is cell-based.
Target sequence in this assay (Q92793 2-2442 limits assumed): as the sequence (Q92793 2-2442 limits assumed) above
Target sequence in this assay (Q96SW2 whole entry partner): as the sequence (Q96SW2 whole entry partner) above
In data set [12] the target is T1, Protein cereblon/Histone acetyltransferase p300. Kind of data set: PROTAC activity at p300/CRBN in human LNCaP cells assessed as maximal protein degradation at 1 uM incubated for 4 hrs by Western blot analysis relative to control. In kind it is cell-based.
The target in data set [13] is T2, Protein cereblon/CREB-binding protein. Briefly: In vivo PROTAC activity at p300/CRBN in human VCaP cells xenografted in CB17 SCID mouse assessed as reduction in CBP protein at 1 mg/kg, po measured after 24 hrs. In kind it is functional, organism-based. More on the design: scale not given: the % may be the effect or the level left.
Target sequence in this assay (Q92793 2-2442 limits assumed): as the sequence (Q92793 2-2442 limits assumed) above
Target sequence in this assay (Q96SW2 whole entry partner): as the sequence (Q96SW2 whole entry partner) above
For data set [14], the target named is T1, Protein cereblon/Histone acetyltransferase p300. Briefly: PROTAC activity at p300/CRBN in AR positive human VCaP cells assessed as maximal protein degradation at 333 nM incubated for 4 hrs by Western blot analysis relative to control. The format is cell-based.
The target of data set [15] is T2, Protein cereblon/CREB-binding protein. Kind of data set: PROTAC activity at CBP/CRBN in AR positive human VCaP cells assessed as maximal protein degradation at 111.1 nM incubated for 4 hrs by Western blot analysis relative to control. In kind it is cell-based.
Target sequence in this assay (Q92793 2-2442 limits assumed): as the sequence (Q92793 2-2442 limits assumed) above
Target sequence in this assay (Q96SW2 whole entry partner): as the sequence (Q96SW2 whole entry partner) above
In data set [16] the target is T1, Protein cereblon/Histone acetyltransferase p300. Kind of data set: PROTAC activity at p300/CRBN in AR positive human VCaP cells assessed as maximal protein degradation at 111 nM incubated for 4 hrs by Western blot analysis relative to control. In kind it is cell-based.
Data set [17] in a line: Drug exposure in CB17 SCID mouse xenografted with human VCaP cells assessed compound concentration in tumor at 3 mg/kg, po measured after 24 hrs by LC-MS/MS analysis. The format is ADME, organism-based, Neoplasm. Conditions: in vivo, BLD = below limit of detection.
Data set [18] in a line: Reduction in KLK3 gene expression in AR positive human VCaP cells assessed as reduction in mRNA level at 1 nM measured after 6 hrs by qRT-PCT analysis relative to control. In kind it is functional.
The nature of data set [19]: Reduction in AR gene expression in AR positive human 22Rv1 cells assessed as reduction in mRNA level at 10 nM measured after 6 hrs by qRT-PCT analysis relative to control. In kind it is functional, CWR22R.
Data set [20] has as its target T1, Protein cereblon/Histone acetyltransferase p300. Kind of data set: PROTAC activity at p300/CRBN in human 22Rv1 cells assessed as reduction in protein level at 100 nM incubated for 4 hrs by multiplexed quantitative proteomics analysis relative to control. The format is cell-based. More on the design: scale not given: the % may be the effect or the level left.
A short description of data set [21]: Reduction in c-Myc gene expression in AR positive human LNCaP cells assessed as reduction in mRNA level at 10 nM measured after 6 hrs by qRT-PCT analysis relative to control. In kind it is functional.
The test system of data set [22] is VCaP. Kind of data set: Antitumor activity against human VCaP cells xenografted in CB17 SCID mouse model assessed as tumor growth inhibition at 1 mg/kg, po qod scheduled 5 days in a week measured on day 63. The format is functional. Conditions: 1512 h, time 63 day, read-out: TGI.
For data set [23], the system named is VCaP. Briefly: Antitumor activity against human VCaP cells xenografted in CB17 SCID mouse model assessed as tumor growth inhibition at 0.3 mg/kg, po qd scheduled 5 days in a week measured on day 63. To be noted: 1512 h, time 63 day, read-out: TGI. The format is functional.
The nature of data set [24]: Apparent permeability coefficient across apical to basolateral side in human Caco-2 cells at 10 uM incubated for 120 mins by LC-MS/MS analysis. To be noted: caco-2, 2 h. The format is ADME, cell-based.

With `CC(=O)N1CCc2c(c(N3CCCc4cc(-c5cnn(C)c5)c(C(F)F)cc43)nn2[C@H]2CC[C@H](CN3CCN(c4ccc5c(c4)C(=O)N(C4CCC(=O)NC4=O)C5=O)CC3)CC2)C1` (some centres undefined), the outcome in the data set with CWR22R [1] was inactive. Further, in the data set on CWR22R [2], the inhibition (as a rule, the change of the read-out against control, counted positive when it falls) is “Dose-Dependent Effect”. In addition, the Activity in data set [3] is 100%; in [4], “Non-Toxic”; in [9], 50%; in data set [13], above 95%; in data set [14], 94%; in data set [15], 94%. Also, the Activity in data set [16] amounted to 100%; in data set [20], 79%. The DC50 (in general, the concentration giving 50% degradation) amounted to 0.4 nM in data set [5], 0.2 nM in data set [7] and 0.3 nM in data set [10]. For the same molecule, 2 nM corresponded to half-maximal inhibition in the data set with VCaP [6] (IC50). The “Ratio IC50” value in the data set with CWR22R [8] is above 50. Also, the Emax (as a rule, the maximal effect, on the per cent scale that the assay sets) in [11] turned out to be 90%; in [12] it was 95%. Also, in data set [17], the Drug uptake result is on record as “Bld”. Moreover, the inhibition at 0.001 µM in data set [18] amounted to 57%. Further, the inhibition at 0.01 µM in data set [19] was 43%; in data set [21] it was above 95%. The inhibition in vivo at 1 mg/kg in the data set with VCaP [22] was 71%. Also, the inhibition in vivo at 0.3 mg/kg in the data set on VCaP [23] stood at 73%. Besides, the Papp in [24] is 2.8 10^-6 cm/s.
